Where “and” joins values, the source holds several entries; their conditions need not be identical. Equal values may be shown once.
Test system: thromboxane analog U46619 induced PAH in minipigs
Experiment: Haemodynamics (PAP, BP) in the anesthetized thromboxane challenged PAH minipig after inhaled (nebulized) application (C-2.1)
Type: in vivo, Göttingen minipig
Conditions: for % changes in BP vs baseline / % changes in PAP vs baseline: inhaled 30 μg/kg; for BP % change vs. baseline / PAP % change vs. baseline: 100 μg/kg nominal dose, individual animals
Procedure, shortened: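 Anesthetized, ventilated Göttingen minipigs (2-6 kg) given continuous infusion (0.3-0.75 μg/kg/min) to raise mean PAP above 25 mmHg, dosing starting after a 30 min plateau. Compound in 1% DMSO/0.2% citric acid, pH 8, nebulized via Aeroneb Pro into the inspiratory arm (~7 min; stock 300 μg/kg). PAP by Swan-Ganz catheter, BP via carotid catheter.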

O=C(O)CCCCN(CCc1cc(F)ccc1OCc1ccc(-c2nc3cc(Cl)ccc3o2)cc1)C1CCCc2nc(C(=O)O)ccc21 (single isomer, unassigned) [comparative example 3, (5)-{(4-carboxybutyl)[2-(2-{[4-(5-chloro-1,3-benzoxazol-2-yl)benzyl]oxy}-5-fluorophenyl)ethyl]amino}-5,6,7,8-tetrahydroquinoline-2-carboxylic acid]
time of maximum effect on PAP (after inhaled application (nebulization), comparative example 11 30 μg/kg, Cinaciguat 3 and 10 μg/kg, Riociguat 100 μg/kg, comparative example 3 30 μg/kg): 30 min
duration of action (PAP decrease) (after inhaled application (nebulization), comparative example 11 30 μg/kg, Cinaciguat 3 and 10 μg/kg, Riociguat 100 μg/kg, comparative example 3 30 μg/kg, observation interval 240 min): 120 min
% changes in BP vs baseline (0 min vs. start inhalation): 100% and 99%
% changes in PAP vs baseline (0 min vs. start inhalation): 100% and 99%
% changes in BP vs baseline (10 min vs. start inhalation): 98% and 93%
% changes in PAP vs baseline (10 min vs. start inhalation): 103% and 99%
% changes in BP vs baseline (20 min vs. start inhalation): 94% and 87%
% changes in PAP vs baseline (20 min vs. start inhalation): 103% and 97%
% changes in BP vs baseline (30 min vs. start inhalation): 95% and 84%
% changes in PAP vs baseline (30 min vs. start inhalation): 104% and 98%
% changes in BP vs baseline (40 min vs. start inhalation): 97% and 81%
% changes in PAP vs baseline (40 min vs. start inhalation): 105% and 95%
% changes in BP vs baseline (50 min vs. start inhalation): 98% and 86%
% changes in PAP vs baseline (50 min vs. start inhalation): 106% and 95%
% changes in BP vs baseline (60 min vs. start inhalation): 101% and 88%
% changes in PAP vs baseline (60 min vs. start inhalation): 108% and 94%
% changes in BP vs baseline (70 min vs. start inhalation): 103% and 88%
% changes in PAP vs baseline (70 min vs. start inhalation): 108% and 93%
% changes in BP vs baseline (80 min vs. start inhalation): 104% and 92%
% changes in PAP vs baseline (80 min vs. start inhalation): 110% and 96%
% changes in BP vs baseline (90 min vs. start inhalation): 106% and 95%
% changes in PAP vs baseline (90 min vs. start inhalation): 110% and 94%
% changes in BP vs baseline (100 min vs. start inhalation): 107% and 96%
% changes in PAP vs baseline (100 min vs. start inhalation): 111% and 93%
% changes in BP vs baseline (110 min vs. start inhalation): 109% and 100%
% changes in PAP vs baseline (110 min vs. start inhalation): 111% and 93%
% changes in BP vs baseline (120 min vs. start inhalation): 111% and 107%
% changes in PAP vs baseline (120 min vs. start inhalation): 112% and 95%
% changes in BP vs baseline (130 min vs. start inhalation): 111% and 104%
% changes in PAP vs baseline (130 min vs. start inhalation): 112% and 92%
% changes in BP vs baseline (140 min vs. start inhalation): 112% and 103%
% changes in PAP vs baseline (140 min vs. start inhalation): 113% and 93%
% changes in BP vs baseline (150 min vs. start inhalation): 112% and 107%
% changes in PAP vs baseline (150 min vs. start inhalation): 113% and 93%
% changes in BP vs baseline (160 min vs. start inhalation): 112% and 110%
% changes in PAP vs baseline (160 min vs. start inhalation): 112% and 92%
% changes in BP vs baseline (170 min vs. start inhalation): 113% and 108%
% changes in PAP vs baseline (170 min vs. start inhalation): 110% and 92%
% changes in BP vs baseline (180 min vs. start inhalation): 113% and 108%
% changes in PAP vs baseline (180 min vs. start inhalation): 112% and 93%
% changes in BP vs baseline (190 min vs. start inhalation): 113%
% changes in PAP vs baseline (190 min vs. start inhalation): 111% and 93%
% changes in BP vs baseline (200 min vs. start inhalation): 112% and 110%
% changes in PAP vs baseline (200 min vs. start inhalation): 110% and 93%
% changes in BP vs baseline (210 min vs. start inhalation): 112% and 109%
% changes in PAP vs baseline (210 min vs. start inhalation): 109% and 93%
% changes in BP vs baseline (220 min vs. start inhalation): 113%
% changes in PAP vs baseline (220 min vs. start inhalation): 109% and 96%
% changes in BP vs baseline (230 min vs. start inhalation): 111% and 112%
% changes in PAP vs baseline (230 min vs. start inhalation): 109% and 94%
% changes in BP vs baseline (240 min vs. start inhalation): 110% and 112%
% changes in PAP vs baseline (240 min vs. start inhalation): 109% and 94%
% changes in BP vs baseline (−5 min vs. start inhalation): 99% and 96%
% changes in PAP vs baseline (−5 min vs. start inhalation): 99%
lung selectivity with respect to the hemodynamic effect (inhaled, 30 μg/kg): good lung selectivity

O=C(O)c1ccc(CCN(CCc2cc(F)ccc2OCc2ccc(-c3nc4cc(Cl)ccc4o3)cc2)C2CCCc3nc(C(=O)O)ccc32)cc1 (single isomer, unassigned) [comparative example 4, 5-{[2-(4-Carboxyphenyl)ethyl][2-(2-{[4-(5-chloro-1,3-benzoxazol-2-yl)benzyl]oxy}-5-fluorophenyl)-ethyl]amino}-5,6,7,8-tetrahydroquinoline-2-carboxylic acid]
BP % change vs. baseline (inhaled, time 80 min): 101.1% and 101.2% and 101.0%
PAP % change vs. baseline (inhaled, time 80 min): 102.0% and 96.2% and 97.5%
BP % change vs. baseline (inhaled, time 90 min): 98.7% and 100.3% and 101.0%
PAP % change vs. baseline (inhaled, time 90 min): 100.2% (2×) and 102.2%
BP % change vs. baseline (inhaled, time 100 min): 101.1% and 100.3% and 98.3%
PAP % change vs. baseline (inhaled, time 100 min): 100.0% and 93.1% and 96.4%
BP % change vs. baseline (inhaled, time 110 min): 99.9% and 102.2% and 98.3%
PAP % change vs. baseline (inhaled, time 110 min): 97.2% and 88.9% and 89.8%
BP % change vs. baseline (inhaled, time 120 min): 101.1% and 101.2% and 101.9%
PAP % change vs. baseline (inhaled, time 120 min): 86.5% and 86.2% and 86.0%
BP % change vs. baseline (inhaled, time 130 min): 99.9% and 99.4% and 100.1%
PAP % change vs. baseline (inhaled, time 130 min): 77.5% and 78.6% and 84.6%
BP % change vs. baseline (inhaled, time 140 min): 99.9% and 99.4% and 100.1%
PAP % change vs. baseline (inhaled, time 140 min): 76.3% and 77.7% and 81.3%
BP % change vs. baseline (inhaled, time 150 min): 99.9% and 98.5% and 100.1%
PAP % change vs. baseline (inhaled, time 150 min): 77.3% and 75.0% and 78.7%
BP % change vs. baseline (inhaled, time 160 min): 99.9% and 96.7% and 99.2%
PAP % change vs. baseline (inhaled, time 160 min): 75.5% and 71.4% and 77.3%
BP % change vs. baseline (inhaled, time 170 min): 101.1% and 97.6% and 99.2%
PAP % change vs. baseline (inhaled, time 170 min): 72.1% and 71.9% and 75.1%
BP % change vs. baseline (inhaled, time 180 min): 102.3% and 95.8% and 99.2%
PAP % change vs. baseline (inhaled, time 180 min): 74.0% and 68.0% and 75.9%
BP % change vs. baseline (inhaled, time 190 min): 102.3% and 95.8% and 99.2%
PAP % change vs. baseline (inhaled, time 190 min): 74.5% and 65.0% and 77.1%
BP % change vs. baseline (inhaled, time 200 min): 102.3% and 94.0% and 99.2%
PAP % change vs. baseline (inhaled, time 200 min): 70.1% and 70.6% and 77.2%
BP % change vs. baseline (inhaled, time 210 min): 103.5% and 94.0% and 99.2%
PAP % change vs. baseline (inhaled, time 210 min): 70.8% and 65.6% and 76.8%
BP % change vs. baseline (inhaled, time 220 min): 105.9% and 95.8% and 98.3%
PAP % change vs. baseline (inhaled, time 220 min): 77.8% and 66.7% and 75.3%
BP % change vs. baseline (inhaled, time 230 min): 107.1% and 94.9% and 97.4%
PAP % change vs. baseline (inhaled, time 230 min): 82.5% and 71.3% and 73.9%
BP % change vs. baseline (inhaled, time 240 min): 107.1% and 94.0% and 97.4%
PAP % change vs. baseline (inhaled, time 240 min): 81.0% and 67.4% and 75.0%
BP % change vs. baseline (inhaled, time 250 min): 109.4% and 94.9% and 98.3%
PAP % change vs. baseline (inhaled, time 250 min): 79.0% and 72.2% and 75.0%
BP % change vs. baseline (inhaled, time 260 min): 107.1% and 94.9% and 98.3%
PAP % change vs. baseline (inhaled, time 260 min): 75.0% and 72.7% and 76.7%
BP % change vs. baseline (inhaled, time 270 min): 107.1% and 94.9% and 97.4%
PAP % change vs. baseline (inhaled, time 270 min): 70.3% and 71.1% and 78.4%
BP % change vs. baseline (inhaled, time 280 min): 107.1% and 94.9% and 99.2%
PAP % change vs. baseline (inhaled, time 280 min): 65.8% and 75.6% and 79.7%
BP % change vs. baseline (inhaled, time 290 min): 107.1% and 94.0% and 98.3%
PAP % change vs. baseline (inhaled, time 290 min): 68.3% and 73.4% and 79.9%
BP % change vs. baseline (inhaled, time 300 min): 107.1% and 94.9% and 99.2%
PAP % change vs. baseline (inhaled, time 300 min): 69.1% and 76.2% and 79.6%
BP % change vs. baseline (inhaled, time 310 min): 107.1% and 94.9% and 98.3%
PAP % change vs. baseline (inhaled, time 310 min): 62.8% and 79.9% and 79.5%
BP % change vs. baseline (inhaled, time 320 min): 104.7% and 94.9% and 99.2%
PAP % change vs. baseline (inhaled, time 320 min): 61.8% and 76.5% and 81.3%
BP % change vs. baseline (inhaled, time 330 min): 107.1% and 94.0% and 101.0%
PAP % change vs. baseline (inhaled, time 330 min): 63.1% and 77.9% and 83.3%
lung selectivity (inhaled, nominal dose of 100 μg/kg): good lung selectivity

Source: US12138256B2, “Treatment of cardiopulmonary disorders” (Bayer Aktiengesellschaft, priority 2021, dated 2024)
